# Results published in patent publication US11173139B2, “Method for extending lifespan delaying the onset of age-related disease” (priority 2004, dated 2021).
# Columns and labels:
# [1] = test system: Sir2 or SIRT1; conditions: cited from earlier work
# [2] = 21 diabetic patients, 100 mg to 1,000 mg (2-10 mg/kg); cited from earlier work
# [3] = test system: Drosophila melanogaster; assay: D. melanogaster lifespan under stress (food vials not changed, microbial pathogens); assay type: in vivo; conditions: Example 5, flies under stress
# Description: It is well known in the literature that calorie restricted animals survive stress better than the control animals fed an ad libitum diet. The data from the experiment were charted and are represented in FIG. 5.
# [4] = test system: C57Bl/6 mice; assay: Lifespan and health of C57Bl/6 mice fed oxaloacetate; assay type: in vivo; conditions: 0.4% in food by weight, at the 21st month of life, still continuing
# [5] = in vivo; cited from earlier work
# [6] = mouse, in vivo
# [7] = test system: Drosophila melanogaster (Vestigal type); assay: D. melanogaster lifespan with oxaloacetate in fly food; assay type: in vivo; conditions: Example 4, 16 mM in water wetting the fly food, vs control
# Description: The fruit fly Drosophila melanogaster (Vestigal type, from Carolina Biological Supply) was used as a test organism to assess the addition of oxaloacetate therapy (from Sigma Aldrich Company) applied to the cells to extend lifespan and to act as a caloric restriction “mimic”. The fruit fly is more complex than C. elegans, but the metabolic pathways that involve calorie restriction are a basic building block of life, and are conserved throughout the animal kingdom. […] A small amount of yeast was added on top of the fly food. […] The flies were kept in a room receiving reflected natural sunlight at a temperature of 21° C. Each of the flies used emerged from the pupae state within 8 hours of each other. The day the flies were moved to the test vials was designated “day 0”, reflecting the emergence of the fly into adulthood. The flies were kept out of direct sunlight and were raised at a temperature of 21° C. The food vials were prepared every 3 to 4 days and the flies transferred to prevent infestation of mites and other pathogenic microbial organisms. The vials with the flies were counted every day to determine the number of dead vs. living. Flies were scored as dead when they no longer respond to a gentle prodding with a probe. Lifespan is defined as the time elapsed from when the flies enter into adulthood (lifespan=0) to when they are scored as dead. […]
# [8] = test system: liver tissue gene expression; assay: Liver gene expression, Affymatrix Mouse Genome 430 2.0 Array, oxaloacetate and CR mice versus control mice; assay type: in vivo, C57Bl/6 mice; conditions: for common genes changed in same direction as calorie restriction: of the 363 common genes
# Description: Three mice of each of the three groups of the C57Bl/6 mice of Example 6 were sacrificed after 21 weeks. […] Because each group was a pooling of three mice, there are a variety of individual responses. Changes in the physical results of the group (such as weight loss, increase in health span, and increase in life span) are due to genes expressed in common by the group, not in individual variation. Thus it is important to look at the genes that changed in expression from the control group, but are commonly expressed between the calorie restricted group and the oxaloacetate supplemented group.
# [9] = Weight gain of older (9 month) C57Bl/6 mice fed oxaloacetate; assay type: in vivo, C57Bl/6 type male mice; conditions: 0.4% oxaloacetate in the food, eating freely, 9 month old mice
# Description: C57Bl/6 type male mice approximately 9 months of age were obtained from Harlan, San Diego, Calif. as retired breeders. These mice were all born on the same day. The C57Bl/6 type mouse is inbred to reduce the genetic variation between individuals. The mice were housed in individual cages and were provided with ad libitum amounts of fortified food pellets (Kadee). The amount of food consumed was weighed daily, while the mice were weighed weekly. After two weeks, a baseline of the average food consumed by the mice was established at 7.1 grams per mouse per day. In addition, after an overnight fast, blood glucose readings for each mouse were recorded for each mouse. […] Male C57Bl/6 type mice, when allowed to eat freely, gain weight with age in a linear fashion. The mice were weighed weekly for 21 weeks, and the individual weights were recorded and averaged to form a “group average” for each of the three groups.
# [10] = test system: C. elegans (N2 wild type); assay: C. elegans lifespan on oxaloacetate-containing nematode growth agar; assay type: in vivo, Caenorhabditis elegans
# Procedure: A similar set of eight control plates with the same nematode growth agar was also prepared. […] In addition, five “starter plates” were made using nematode growth agar and no 5′flurodeoxyuridine. All plates were streaked with 0.5 ml bacteria Luria broth containing E. coli as a food source for the nematodes. The bacteria were allowed to grow on the plates for several days at 37° C. prior to adding C. elegans. Ten C. elegans nematodes were transferred to each of five “starter plates” and were left on the plates for 12 hours to lay eggs. The C. elegans were then removed and the eggs were allowed to grow into young adults for two days. Ten nematodes were then transferred to each control plate and oxaloacetate plate by “picking” worms with a microprobe from the starter plate and moving it onto the target test plates. The day after the starter plates have been started with the 10 C. elegans was designated “day 0”, and was the estimated time of birth. The C. elegans were kept out of direct sunlight and were raised at a temperature of 21° C. The plates with the C. elegans were counted every day to determine the number of dead nematodes. Nematodes were scored as dead when they no longer respond to a gentle prodding with a probe. Lifespan is defined as the time elapsed from when the nematodes are hatched (lifespan=0) to when they are scored as dead. Nematodes that crawl off the plates or are otherwise lost during the assay have been excluded from calculations. The dead nematodes were removed from the plates each day with microprobe. The total population is the sum of all found dead worms. The counting of the nematodes was continued until all nematodes were dead. The data was then charted and is represented in FIG. 2. […] The highest increase in lifespan was at 16 mM (approximate 25%) for the concentrations tested, and the lowest increase was a 2 mM (approximately 10%). […] Splitomycin is a selective inhibitor for the Sir2 gene (Sir2a in yeast, Sirt1 in humnans).
# [11] = count of genes among those shown to change commonly
compound,measurement,setting,value
CC=O [acetaldehyde],activity of beneficial genes,[1],did not see any increase in the activity of beneficial genes
O=C(O)CC(=O)C(=O)O [oxaloacetate],side effects,[2],no negative side effects
same,maximal increase in lifespan,[3],30%
same,increase in lifespan over control group,[4],≥ 10%
same,LD50,[5],above 5 g/kg of body weight
same,toxicity,[6],negative toxicity
same,increase in average lifespan,[7],20%
same,percentage of common changed genes moving in same direction as calorie restriction,"[8]; 363 common genes, liver, Table 1",98%
same,"Gene Movement in Same Direction?, Cyp2b9","[8]; Affymatrix No. 3985, OX versus CR, both to control",YES
same,"Gene Movement in Same Direction?, similar to cytochrome P450 2B4-rat (LOC232993)","[8]; Affymatrix No. 17655, OX versus CR, both to control",YES
same,Percentage of Genes Moving in Same Direction as Calorie Restricted Mice,"[8]; Table 2, 1.7 fold cut off",100.0%
same,Mice Fed Oxaloacetate with Genes Moving in Opposite Direction as Calorie Restricted Mice,[8]; [11],7
same,Mice Fed Oxaloacetate with Genes Moving in Same Direction as Calorie Restricted Mice,[8]; [11],356
same,Percentage of Mice Fed Oxaloacetate with Genes Moving in Same Direction as Calorie Restricted Mice,[8]; genes shown to change commonly,98.1%
same,common genes changed in same direction as calorie restriction,[8]; liver,357 genes
same,common genes changed in same direction as calorie restriction,"[8]; liver, listed as Oxaloacetate",356 genes
same,genes with measurable change in expression versus control,"[8]; pooled liver of three mice, 21 weeks",765 genes
same,genes changed in common with calorie restricted mice versus control,"[8]; pooled liver, 21 weeks",363 genes
same,less weight gained than control group,[9],20%
same,increase in maximal life span,"[10]; Example 1, 16 mM in nematode growth agar, vs control plates",40%
same,increase in average lifespan,"[10]; Example 1, 16 mM in nematode growth agar, vs control plates, 21° C.",23.6%
same,increase in lifespan,"[10]; Example 2, 2 mM in agar (lowest increase)",approximately 10%
same,increase in lifespan,"[10]; Example 2, 16 mM in agar (highest increase)",~25%
"O=C1CCc2c(ccc3ccccc23)O1 [splitomycin, reference compound]",lifespan compared with control group,"[10]; Example 3, FIG. 3, inhibited Sir2 function, no oxaloacetate",lived for shorter periods than the control group
